{"source": "ChEMBL document CHEMBL3046080", "about": "“Synthesis of imidazole-derived steroidal hybrids as potent aromatase inhibitors” (Med Chem Res, 2013)", "key": {"Aromatase": {"target": "T1, Aromatase (Homo sapiens, UniProt P11511)", "T1 sequence (P11511 whole entry)": "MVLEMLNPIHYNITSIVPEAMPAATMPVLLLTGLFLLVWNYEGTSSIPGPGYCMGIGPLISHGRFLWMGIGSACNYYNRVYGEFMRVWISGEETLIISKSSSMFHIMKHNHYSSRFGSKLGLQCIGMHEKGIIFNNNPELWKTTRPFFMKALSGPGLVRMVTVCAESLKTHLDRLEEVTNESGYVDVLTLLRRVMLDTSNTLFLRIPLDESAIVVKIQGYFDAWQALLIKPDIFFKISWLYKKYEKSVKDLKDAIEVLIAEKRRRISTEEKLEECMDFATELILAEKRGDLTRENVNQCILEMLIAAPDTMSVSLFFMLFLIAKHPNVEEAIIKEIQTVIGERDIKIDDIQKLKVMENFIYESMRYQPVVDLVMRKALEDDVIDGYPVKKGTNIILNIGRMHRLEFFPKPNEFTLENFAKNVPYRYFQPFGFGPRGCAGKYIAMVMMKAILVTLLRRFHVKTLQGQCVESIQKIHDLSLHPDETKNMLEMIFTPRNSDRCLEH", "design": "species or system Placenta, Microsome", "description": "Inhibition of aromatase in Homo sapiens (human) placental microsome assessed as tritiated H2O release from [1-beta-3H] androstenedione substrate preincubated with substrate for 5 min prior to enzyme addition measured after 20 min by beta-scintillation counting analysis"}, "aromatase (CYP19) [1]": {"target": "T2, aromatase (CYP19) (Homo sapiens, UniProt P11511)", "T2 sequence (P11511 whole entry)": "T1 sequence (P11511 whole entry)", "assay": "Inhibition of aromatase in Homo sapiens (human) placental microsome assessed as tritiated H2O release from [1-beta-3H] androstenedione substrate at 5 uM preincubated with substrate for 5 min prior to enzyme addition measured after 20 min by beta-scintillation counting analysis", "design": "species or system Placenta", "conditions": "placental microsomes, probe [1-beta-3H] androstenedione"}, "aromatase (CYP19) [2]": {"target": "T2, aromatase (CYP19)", "assay": "Inhibition of aromatase in Homo sapiens (human) placental microsome assessed as tritiated H2O release from [1-beta-3H] androstenedione substrate at 36 uM preincubated with substrate for 5 min prior to enzyme addition measured after 20 min by beta-scintillation counting analysis", "design": "species or system Placenta", "conditions": "placental microsomes, probe [1-beta-3H] androstenedione"}}, "note": "pIC50: −log10 of the molar value.", "data": [{"smiles": "C[C@]12CCC(=O)C=C1CC[C@@H]1[C@@H]2CC[C@]2(C)C(=O)/C(=C/c3ccc(OCCCn4ccnc4)cc3)C[C@@H]12", "values": [{"measurement": "pIC50", "setting": "Aromatase", "value": 4.92}]}, {"smiles": "C[C@]12CC[C@H](O)CC1=CC[C@@H]1[C@@H]2CC[C@]2(C)C(=O)/C(=C/c3ccc(OCCCn4ccnc4)cc3)C[C@@H]12", "values": [{"measurement": "inhibition at 20 min, 5 µM", "setting": "aromatase (CYP19) [1]", "value": 4.1, "unit": "%"}]}, {"smiles": "C[C@]12CC[C@H](O)CC1=CC[C@@H]1[C@@H]2CC[C@]2(C)C(=O)/C(=C/c3ccc(OCCCCl)cc3)C[C@@H]12", "values": [{"measurement": "inhibition at 20 min, 5 µM", "setting": "aromatase (CYP19) [1]", "value": 0.2, "unit": "%"}]}, {"smiles": "CC(=O)O[C@H]1CC[C@@]2(C)C(=CC[C@@H]3[C@@H]2CC[C@]2(C)C(=O)/C(=C/c4cccc(OCCCn5ccnc5)c4)C[C@@H]32)C1", "values": [{"measurement": "inhibition at 20 min, 36 µM", "setting": "aromatase (CYP19) [2]", "value": 38, "unit": "%"}]}, {"smiles": "CC(=O)O[C@H]1CC[C@@]2(C)C(=CC[C@H]3[C@@H]4C/C(=C\\c5cccc(OCCCn6ccnc6)c5)[C@H](OC(C)=O)[C@@]4(C)CC[C@@H]32)C1", "values": [{"measurement": "inhibition at 20 min, 36 µM", "setting": "aromatase (CYP19) [2]", "value": 34, "unit": "%"}]}, {"smiles": "C[C@]12CC[C@H]3[C@@H](CC=C4C[C@@H](O)CC[C@@]43C)[C@@H]1C/C(=C\\c1cccc(OCCCn3ccnc3)c1)[C@@H]2O", "values": [{"measurement": "pIC50", "setting": "Aromatase", "value": 5.04}]}, {"smiles": "C[C@]12CC[C@H](O)CC1=CC[C@@H]1[C@@H]2CC[C@]2(C)C(=O)/C(=C/c3cccc(OCCCn4ccnc4)c3)C[C@@H]12", "values": [{"measurement": "inhibition at 20 min, 36 µM", "setting": "aromatase (CYP19) [2]", "value": 34, "unit": "%"}]}]}
